Measured values as given in US20080058284A1, “Pharmaceutical compositions of semicarbazones and/or thiosemicarbazones and/or their derivatives and products of these compositions and their uses as anticonvulsant, anti-nociceptive and anti-inflammatory agents, and in the angiogenic therapy” (UNIVERSIDALE FEDERAL DE MINAS GERAIS, priority 2002, published 2008).

Tests used:
[1] = tested on: Wistar normal rats with electroshock induced seizures; assay: Maximum electroshock screening (MES), blockade of hindlimb extension; format: in vivo, rat
Protocol: Comparison of the Anticonvulsant Effect of Free Benzaldehyde Semicarbazone (BS) and the BS/HP-β-CD and BS/β-CD Pharmaceutical Compositions in Wistar Normal Rats with Electroshock Induced Seizures (Maximum Electroshock Screening, MES)
(§1) Wistar rats from the main breeding stock of the Institute of Biological Sciences, Federal University of Minas Gerais, Brazil, maintained at the animal facilities of the Physiology Department, weighing 250-300 g, were used. They were kept at 24° C., in groups of 5 per cage receiving chow pellets and water ad libitum. The light/dark cycle was 12 h:12 h, with lights on at 7:00 am and lights off at 7:00 pm. Efforts were made in order to avoid any unnecessary distress to the animals, in accordance to the Guidelines for Animal Experimentation of Federal University of Minas Gerais, Brazil.
Electroshock seizures were induced by electric stimulus, produced by an ELEKTROSCHOCKGERAT apparatus (Karl Kolbe, Scientific Technical Supplies, Frankfurt, Germany) using a current of 70 mA, 60 Hz, during 1 second through a pair of ear clip electrodes.
The behavioral evaluation was carried out by analyzing the tonic component in a four points scale as follows: 0=no seizure; 1=forelimb extension without hind limb extension; 2=complete forelimb extension and partial hind limb extension; 3=complete hind limb extension, which stays parallel to the tail. To evaluate the effect of decreasing on electroshock induced seizures severity, it was taken as criteria the blockade of complete fore- and hind limb extension (score≦1).

[2] = tested on: Wistar Audiogenic Rats (WAR) with audiogenic seizures; assay: Audiogenic seizures (AS) in Wistar Audiogenic Rats, blockade of tonic component; format: in vivo, rat
Source text: Comparison of the Anticonvulsant Effect of Free Benzaldehyde Semicarbazone (BS) and the HP-β-CD/BS Pharmaceutical Composition in Wistar Audiogenic Rats (WAR) with Audiogenic Seizures (AS). Typically WARs Present Running Fits, Jumping, Atonic Falling Followed by Tonic-Clonic Seizures and Clonic Spasms when Submitted to High Intensity Sound Stimulus (120 dB SPL)
as §1, with “Female Wistar” for “Wistar”, “Audiogenic Rats (WARs)” for “rats”, “our own inbred colony,” for “the main breeding stock of the Institute of Biological Sciences, Federal University of Minas Gerais, Brazil,”, “Department of Federal University of Minas Gerais, Brazil,” for “Department,”
Audiogenic seizures (AS) were induced by a sound stimulus (120 dB) delivered into an acoustic chamber through a loud speaker, until tonic seizures appeared, or during a maximum of 1 minute. Behavior was evaluated by a severity index (SI) ranging from SI=0.0 to SI=1.0 (maximum).
Typically WARs present running fits, jumping and atonic falling followed by tonic-clonic seizures and clonic spasms (SI≧0.85). Animals were stimulated three times, once every three days before the beginning of experiments, in order to screen them for seizure severity (control recording). Seven days after the third stimulation they were used in the experiments. To evaluate the effect of decreasing on AS severity, it was taken as criteria the blockade of the tonic component of seizure, which means to obtain SI<0.61.

motor activity of mice = assay: Motor activity in rota-rod apparatus; format: in vivo; conditions: 10, 25 or 50 mg/kg i.p.; 30 min after injection; 14 rpm, cut-off 1 min
Protocol: The effect of BS on the motor activity of mice was evaluated in order to investigate if inhibition of the nociceptive behavior in animals treated with BS would not be the result of a central depressor effect. The motor activity was evaluated in a rota-rod apparatus. During the experiment, the mice were placed on the rota-rod (14 rpm) and the time they spent in the apparatus was determined. The cut-off time was 1 min. After the basal lecture, the animals were treated with BS (10, 25 or 50 mg/kg, intraperitoneal; i.p.). The vehicle used was 25% dimethylsulphoxide (DMSO)+10% tween 80 in saline. Thirty minutes after the injection, the time spent in the rota-rod was determined again.

[3] = tested on: nociceptive response induced by formaldehyde in mice; assay: Licking behavior induced by formaldehyde; format: in vivo
Protocol: In the first model, licking behaviour induced by formaldehyde (0.92%, 20 μL), the inflammatory stimulus is injected into the dorsum of the right hindpaw of mice. Immediately after the injection, the animals present a nociceptive behaviour characterized by licking and biting the injected paw. The licking time is determined between 0 and 5 min and 15 and 30 min after formaldehyde injection. The first phase results from direct activations of primary afferent fibers and is inhibited mainly by centrally acting drugs such as the opioid analgesics. The second phase is associated with the development of an inflammatory response and facilitation of synaptic transmission in the spinal cord.
In the model of licking behavior induced by formaldehyde, the inflammatory stimulus (0.92%, 20 μL) is injected into the dorsum of the right hindpaw of mice. Immediately after the injection, the animals present a nociceptive behaviour characterized by licking and biting the injected paw. The licking time is determined between 0 and 5 min (first phase) and 15 and 30 min (second phase) after formaldehyde injection. The first phase of the nociceptive response induced by formaldehyde in mice was inhibited by the highest dose of BS (50 mg/kg, i.p.).

[4] = tested on: thermal allodynia induced by carrageenan in Wistar male rats; assay: Thermal allodynia induced by carrageenan; format: in vivo, rat; conditions: only at 50 mg/kg i.p., -1 h (10, 25, 50 mg/kg tested)
Protocol: (§2) In the model of thermal allodynia, the right hindpaw withdrawal latency to a thermal stimulus (Hargreaves apparatus—Ugo Basile, Italy) is determined in rats before the administration of any drug. The intensity of the thermal stimulus is adjusted to induce a basal latency about 12 s. After the basal lecture, carrageenan (1%, 50 μL) is injected into the right hindpaw. This inflammatory stimulus reduces the latency for paw withdrawal induced by the thermal stimulus, which is characterized as thermal allodynia.
as §2, with “μl)” for “μL)”

[5] = tested on: carrageenan-induced edema in rats; assay: Carrageenan-induced edema; format: in vivo, rat; conditions: 10, 25 or 50 mg/kg i.p., -1 h
Protocol: To evaluate if a coupound presents antiedematogenic activity, the model of carrageenan-induced edema in rats was used. In this model, before the administration of any drug, the right hindpaw volume is determined with a plethysmomether. After the division of the groups, carrageenan (1%, 50 μL) is injected into the plantar surface. At different times after the injection of carrageenan, the paw volume is determined again. This inflammatory stimulus induces a marked edema that is inhibited by different anti-inflammatory drugs (steroid and non-steroid), inhibitors of nitric oxide synthesis and antagonists of histamine, 5-hydroxytryptamine and bradykinin, inhibitors of nitric oxide syntheses, etc.
To evaluate if BS presents antiedematogenic activity, the model of carrageenan-induced edema in rats was used. In this model, before the administration of any drug, the right hindpaw volume is determined with a plethysmomether. After the division of the groups, carrageenan (1%, 50 μl) is injected into the plantar surface. At different times after the injection of carrageenan, the paw volume is determined again.

[6] = tested on: nociceptive response of mice on hot-plate (57° C.); assay: Hot-plate model; format: in vivo; conditions: 10, 25 or 50 mg/kg i.p., -1 h
Protocol: (§3) In the hot-plate model, the mice are placed over a hot-plate (57° C.). The latency to jump or lick the paws is determined. In this model, direct and immediate activation of peripheral afferent fibbers occurs. Thus, drugs that act mainly in the central nervous system inhibit the nociceptive response in this model.
as §3, with “fibers” for “fibbers”

[7] = tested on: angiogenesis induced by sponge implant in Swiss mice; assay: Angiogenesis induced by sponge implant, hemoglobin content (vascular index); format: in vivo; conditions: for reduction in the hemoglobin content of implants: vs vehicle-treated group
Protocol: The experiments were performed in male, Swiss mice (20-30 g; 12 weeks old) from the Animal House of the Institute of Biological Sciences, Federal University of Minas Gerais. Polyether-polyurethane sponge discs 5 mm thickness and 10 mm diameter with central cannula, used as a framework to induce fibrovascular tissue growth, were introduced through a skin incision in the back of mice anesthetized with 2,2,2-tribromoethanol ([…]) [Machado, R. D. P., Santos, R. A. S., Andrade, S. P., Life Sciences 66, 67, 2000]. The animals were housed individually and provided with normal food and water. Housing and anesthesia concurred with the guidelines established by our local Institutional Animal Welfare Committee.
Four more doses were given in the subsequent days. The animals were killed by cervical dislocation 9 days after implantation. The implants were removed and processed for hemoglobin determination (vascular index) using a modified Drabkin's method [Plunkett, M. L., Haley, J. A., Lab. Invest. […] One group of animals received injection of vehicle.

Row | Compound | animals with hindlimb extension blocked ([1]; 100 mg/Kg ip and vo, males) | animals in which active, 240 minutes after administration ([1]; 240 minutes after administration (vo)) | minimum dose necessary to produce anticonvulsant activity ([1]; ip) [mg/kg] | minimum dose necessary to produce anticonvulsant activity ([1]; vo) [mg/kg] | animals with tonic component of seizures blocked ([2]; 50 mg/Kg ip) [%] | animals with tonic component of seizures blocked ([2]; 75 mg/Kg ip) [%] | animals with tonic component of seizures blocked ([2]; 100 mg/Kg ip) [%] | minimum dose necessary to produce anticonvulsant activity ([2]; vo and ip) [mg/kg] | time spent in the rota-rod (motor activity of mice) | second phase of the nociceptive response (licking time 15-30 min) ([3]; all doses: 10, 25 and 50 mg/kg i.p., -1 h) | first phase of the nociceptive response (licking time 0-5 min) ([3]; highest dose, 50 mg/kg i.p.) | nociceptive response in thermal allodynia (paw withdrawal latency) [4] | carrageenan-induced edema (paw volume) [5] | anti-nociceptive effect (latency to jump or lick the paws) [6] | reduction in the hemoglobin content of implants ([7]; 0.05 mg/kg ip, 9 days after implantation) | reduction in the hemoglobin content of implants ([7]; the other doses (0.25, 0.5 and 2.5 mg/kg ip)) | increase in hemoglobin content of implants ([7]; 0.25 mg/kg, relative to the control group) | increase of hemoglobin content (vascular index), summary statement ([7]; dose not stated)
1 | NC(=O)NN=Cc1ccccc1 [BS, benzaldehyde semicarbazone] | about 90% | no activity | 100 | 100 | 33 | 50 | 83 | 100 | did not reduce the time spent in the rota-rod | markedly inhibited | inhibited | statistically inhibited | inhibited the carrageenan-induced edema | did not exhibit anti-nociceptive effect | unable to reduce the hemoglobin content | more than 50% | – | –
2 | bromobenzaldehyde semicarbazone [BrBs] | – | – | – | – | – | – | – | – | – | – | – | – | – | – | – | – | about 30% | more than 30%
